Measurements from ChEMBL document CHEMBL1141299, “Hologram QSAR model for the prediction of human oral bioavailability” (Bioorg Med Chem, 2007).

assay: Oral bioavailability in human; conditions: in vivo

| SMILES | bioavailability [%] |
| --- | --- |
| C[C@@H](NC(C)(C)C)C(=O)c1cccc(Cl)c1 | 70 |
| CC[C@]1(c2ccccc2)C(=O)NC(=O)N(C)C1=O [(S)-METHYLPHENOBARBITAL] | 73 |
| O=C1Nc2ccc(Cl)cc2C(c2ccccc2Cl)=N[C@H]1O [(S)-LORAZEPAM] | 93 |
| O=C1CN=C(c2ccccc2Cl)c2cc([N+](=O)[O-])ccc2N1 [CLONAZEPAM] | 90 |
| NS(=O)(=O)c1cc([C@]2(O)NC(=O)c3ccccc32)ccc1Cl [(R)-CHLORTHALIDONE] | 64 |
| NS(=O)(=O)c1cc([C@@]2(O)NC(=O)c3ccccc32)ccc1Cl | 64 |
| O=C1Nc2ccc(Cl)cc2C(c2ccccc2Cl)=N[C@@H]1O [(R)-LORAZEPAM] | 93 |
| CN1C[C@H](CNC(=O)OCc2ccccc2)C[C@@H]2c3cccc4c3c(cn4C)C[C@H]21 [METERGOLINE] | 23 |
| COc1c(N2C[C@@H]3CCCN[C@@H]3C2)c(F)cc2c(=O)c(C(=O)O)cn(C3CC3)c12 [MOXIFLOXACIN] | 90 |
| C=CCN1CC[C@]23c4c5ccc(O)c4O[C@H]2C(=O)CC[C@@]3(O)[C@H]1C5 [NALOXONE] | 2 |
| CC(C)C[C@H]1C(=O)N2CCC[C@H]2[C@]2(O)O[C@](NC(=O)[C@@H]3C=C4c5cccc6[nH]c(Br)c(c56)C[C@H]4N(C)C3)(C(C)C)C(=O)N12 [BROMOCRIPTINE] | 4.5 |
| NC(=O)c1ncn([C@@H]2O[C@H](CO)[C@@H](O)[C@H]2O)n1 [RIBAVIRIN] | 64 |
| C[C@@H](N)Cc1cccc(C(F)(F)F)c1 | 85 |
| COc1cccc([C@@]2(O)CCCC[C@@H]2CN(C)C)c1 [TRAMADOL] | 75 |
| CC(C)=CCN1CC[C@]2(C)c3cc(O)ccc3C[C@H]1[C@H]2C [(+)-PENTAZOCINE] | 18 |
| Cn1c(=O)c2[nH]cnc2n(C)c1=O.O [THEOPHYLLINE] | 98.8 |
| CN1CCN(C(=O)O[C@H]2c3nccnc3C(=O)N2c2ccc(Cl)cn2)CC1 [ESZOPICLONE] | 80 |
| CC[C@@]1(c2ccccc2)C(=O)NC(=O)N(C)C1=O [(R)-METHYLPHENOBARBITAL] | 73 |
| CCC(=O)C(C[C@H](C)N(C)C)(c1ccccc1)c1ccccc1 [ESMETHADONE] | 92 |
| CC(C)N(CC[C@](C(N)=O)(c1ccccc1)c1ccccn1)C(C)C [(S)-DISOPYRAMIDE] | 83 |
| CCN[C@H](C)Cc1cccc(C(F)(F)F)c1 [LEVOFENFLURAMINE] | 89 |
| COC(=O)C1=C(C)NC(C)=C(C(=O)OC)C1c1ccccc1[N+](=O)[O-] [NIFEDIPINE] | 50 |
| CN1C(=O)[C@@H](O)N=C(c2ccccc2Cl)c2cc(Cl)ccc21 [(R)-LORMETAZEPAM] | 75 |

same assay, conditions: in vivo, F

| SMILES | bioavailability [%] |
| --- | --- |
| Cc1ccsc1C(=CCCN1CCCC(C(=O)O)C1)c1sccc1C (single isomer, unassigned) [TIAGABINE] | 90 |
| CCOC(=O)C(CCc1ccccc1)N[C@@H](C)C(=O)N1CCC[C@H]1C(=O)O (single isomer, unassigned) | 41 |
| Cn1c(=O)c2c(ncn2C)n(C)c1=O [CAFFEINE] | 100 |
| C=C1c2cccc(O)c2C(=O)C2=C(O)[C@]3(O)C(=O)C(C(N)=O)=C(O)[C@@H](N(C)C)[C@@H]3[C@@H](O)[C@H]12 [METHACYCLINE] | 58 |
| CCN(CC)CCC[C@H](C)Nc1ccnc2cc(Cl)ccc12 | 80 |
| Clc1cccc(Cl)c1N=C1NCCN1 [CLONIDINE] | 60 |
| CN1Cc2c(N)cccc2[C@H](c2ccccc2)C1 | 27 |
| O=C(NC[C@@H]1CCCCN1)c1cc(OCC(F)(F)F)ccc1OCC(F)(F)F | 95 |
| CC1(C)S[C@@H]2[C@H](NC(=O)Cc3ccccc3)C(=O)N2[C@H]1C(=O)O [PENICILLIN G] | 22.5 |
| CCOc1cc(CC(=O)N[C@@H](CC(C)C)c2ccccc2N2CCCCC2)ccc1C(=O)O [REPAGLINIDE] | 56 |
| CC(C)(C#N)c1cc(Cn2cncn2)cc(C(C)(C)C#N)c1 [ANASTROZOLE] | 84 |
| CCC(C)n1ncn(-c2ccc(N3CCN(c4ccc(OC[C@H]5CO[C@](Cn6cncn6)(c6ccc(Cl)cc6Cl)O5)cc4)CC3)cc2)c1=O (stereo partly specified) [ITRACONAZOLE] | 55 |
| Cc1scc2c1N(C(=O)CN1CCN(C)CC1)c1ccccc1NC2=O [TELENZEPINE] | 54 |
| Cc1[nH]c(=O)c(C#N)cc1-c1ccncc1 [MILRINONE] | 92 |
| CCCCC(=O)O[C@H]1CC[C@H]2[C@@H]3CCc4cc(O)ccc4[C@H]3CC[C@]12C [ESTRADIOL VALERATE] | 3 |
| C[C@@H]1COc2c(N3CCN(C)CC3)c(F)cc3c(=O)c(C(=O)O)cn1c23 [DEXTROFLOXACINE] | 97.5 |
| CC1(C)O[C@@H]2[C@@H](CO[C@@]3(COS(N)(=O)=O)OC(C)(C)O[C@@H]23)O1 [TOPIRAMATE] | 70 |
| C#C[C@]1(O)CC[C@H]2[C@@H]3CCc4cc(O)ccc4[C@H]3CC[C@@]21C [ETHINYL ESTRADIOL] | 40 |
| CN1CCN2c3ccccc3Cc3ccccc3[C@H]2C1 | 20 |
| CCN(CC)CCNC(=O)c1ccc(N)cc1 [PROCAINAMIDE] | 83 |

| SMILES | bioavailability [%] |
| --- | --- |
| CCOC(=O)C(C)(C)Oc1ccc(Cl)cc1 [CLOFIBRATE] | 95 |
| CN(C)S(=O)(=O)c1ccc2c(c1)N(CCCN1CCC(CCO)CC1)c1ccccc1S2 [PIPOTIAZINE] | 26 |
| Cc1cccc(C)c1NC(=O)[C@H](C)N [S-TOCAINIDE] | 89 |
| Nc1ccc(S(=O)(=O)c2ccc(N)cc2)cc1 [DAPSONE] | 93 |
| CNC/C=C(\c1ccc(Br)cc1)c1cccnc1 [NORZIMELIDINE] | 66 |
| CO/N=C1\CN(c2nc3c(cc2F)c(=O)c(C(=O)O)cn3C2CC2)CC1CN (stereo unspecified) [GEMIFLOXACIN] | 71 |
| CN1CCC[C@@H]1Cc1c[nH]c2ccc(CCS(=O)(=O)c3ccccc3)cc12 | 62.5 |
| CC1=CC[C@H](C(C)(C)O)C[C@H]1O | 72 |
| C[C@H](CN1CCN(CCOCCO)CC1)CN1c2ccccc2Sc2ccccc21 | 10 |
| CCOC(=O)C1=C(C)NC(C)=C(C(=O)OC)[C@H]1c1cccc([N+](=O)[O-])c1 [(R)-NITRENDIPINE] | 16 |
| CN(C)CCc1c[nH]c2ccc(CS(=O)(=O)N3CCCC3)cc12 [ALMOTRIPTAN] | 70 |
| Cc1nnc(SCC2=C(C(=O)O)N3C(=O)[C@@H](NC(=O)Cn4cnnn4)[C@H]3SC2)s1 [CEFAZOLIN] | 90 |
| Cc1onc(-c2ccccc2Cl)c1C(=O)N[C@@H]1C(=O)N2[C@@H]1SC(C)(C)[C@@H]2C(=O)O [CLOXACILLIN] | 37 |
| CCc1cccc2cc([C@H](O)CNC(C)(C)C)oc12 [(R)-BUFURALOL] | 46 |
| COc1cc2ncnc(Nc3ccc(F)c(Cl)c3)c2cc1OCCCN1CCOCC1 [GEFITINIB] | 60 |
| CC(C)Nc1cccnc1N1CCN(C(=O)c2cc3cc(NS(C)(=O)=O)ccc3[nH]2)CC1 [DELAVIRDINE] | 96 |
| CC(=O)OCC(CCn1cnc2cnc(N)nc21)COC(C)=O [FAMCICLOVIR] | 77 |
| C=C[C@H]1C[N@@]2CC[C@H]1C[C@@H]2[C@@H](O)c1ccnc2ccc(OC)cc12 [QUINIDINE] | 75 |
| Cc1cn([C@H]2C[C@H](N=[N+]=[N-])[C@@H](CO)O2)c(=O)[nH]c1=O [ZIDOVUDINE] | 64 |
| CO[C@H]1C[C@@H]2CC[C@@H](C)[C@@](O)(O2)C(=O)C(=O)N2CCCC[C@H]2C(=O)O[C@H]([C@H](C)C[C@@H]2CC[C@@H](O)[C@H](OC)C2)CC(=O)[C@H](C)/C=C(\C)[C@@H](O)[C@@H](OC)C(=O)[C@H](C)C[C@H](C)/C=C/C=C/C=C/1C [SIROLIMUS] | 14 |

| SMILES | bioavailability [%] |
| --- | --- |
| COc1ccc(CCN(C)CCC[C@@](C#N)(c2ccc(OC)c(OC)c2)C(C)C)cc1OC | 13.5 |
| CC(C)NC[C@@H](O)c1ccc(NS(C)(=O)=O)cc1 [DEXSOTALOL] | 60 |
| N[C@@H](C(=O)N[C@@H]1C(=O)N2C(C(=O)O)=C(Cl)CS[C@H]12)c1ccccc1 [CEFACLOR ANHYDROUS] | 90 |
| O=C(O)Cc1nn(-c2ccc(F)cc2)cc1-c1ccc(Cl)cc1 [PIRAZOLAC] | 93.5 |
| Cc1nccn1C[C@H]1CCc2c(c3ccccc3n2C)C1=O [(R)-ONDANSETRON] | 62 |
| COC(=O)C1=C(C)NC(C)=C(C(=O)OC(C)C)[C@H]1c1cccc2nonc12 [(S)-ISRADIPINE] | 19.5 |
| COc1ccc(Cl)cc1C(=O)NCCc1ccc(S(=O)(=O)NC(=O)NC2CCCCC2)cc1 [GLYBURIDE] | 95 |
| COc1ccc(-c2nc(-c3ccc(F)cc3F)[nH]c2-c2ccc(OC)cc2)cc1 [FENFLUMIZOLE] | 50 |
| CC1(C)O[C@@H]2C[C@H]3[C@@H]4C[C@H](F)C5=CC(=O)C=C[C@]5(C)[C@H]4[C@@H](O)C[C@]3(C)[C@]2(C(=O)CO)O1 [FLUNISOLIDE] | 20 |
| C#C[C@]1(O)CC[C@H]2[C@@H]3CCC4=CC(=O)CC[C@@H]4[C@H]3CC[C@@]21CC [LEVONORGESTREL] | 87 |
| Cc1cccc(OC[C@H](O)CNC(C)C)c1 [(R)-TOLIPROLOL] | 90 |
| CC[C@H](C)C(=O)O[C@H]1C[C@H](O)C=C2C=C[C@H](C)[C@H](CC[C@@H](O)C[C@@H](O)CC(=O)O)[C@H]21 [PRAVASTATIN] | 17 |
| O=C1CN(/N=C/c2ccc([N+](=O)[O-])o2)C(=O)N1 [NITROFURANTOIN] | 87 |
| C#C[C@]1(O)CC[C@H]2[C@@H]3CCC4=CC(=O)CC[C@@H]4[C@H]3CC[C@@]21C [NORETHINDRONE] | 64 |
| CN(C)[C@@H]1C(O)=C(C(N)=O)C(=O)[C@@]2(O)C(O)=C3C(=O)c4c(O)cccc4[C@@](C)(O)[C@H]3[C@H](O)[C@@H]12 [OXYTETRACYCLINE] | 58 |
| CC[C@@H](CO)NCCN[C@@H](CC)CO [ETHAMBUTOL] | 77 |
| CN1C(C(=O)Nc2ccccn2)=C(O)c2ccccc2S1(=O)=O [PIROXICAM] | 100 |
| Nc1nc(=O)n([C@@H]2CS[C@H](CO)O2)cc1F [EMTRICITABINE] | 93 |
